Data from ChEMBL document CHEMBL1156482, “Molecular mechanism of action of monocyclam versus bicyclam non-peptide antagonists in the CXCR4 chemokine receptor” (J Biol Chem, 2007).

Legend:
[1] = target: C-X-C chemokine receptor type 4 (Homo sapiens, UniProt P61073, I259A); experiment: (§1) Antagonist activity at transmembrane domain 6 of human CXCR4 I259A mutant expressed in COS7 cells coexpressing G protein Gqi4myr assessed as inhibition of CXCL12-induced phosphatidylinositol turnover; format: functional, cell-based, COS-7
[2] = system: C-X-C chemokine receptor type 4 (Homo sapiens), P61073 [I259A]; experiment: as §1; format: functional, cell-based; conditions: COS-7
[3] = target: C-X-C chemokine receptor type 4 (Homo sapiens, UniProt P61073, F172A); experiment: (§2) Antagonist activity at human CXCR4 F172A mutant expressed in COS7 cells coexpressing G protein Gqi4myr assessed as inhibition of CXCL12-induced phosphatidylinositol turnover; format: functional, cell-based, COS-7
[4] = system: C-X-C chemokine receptor type 4 (Homo sapiens), P61073 [F172A]; experiment: as §2; format: functional, cell-based; conditions: COS-7
[5] = system: C-X-C chemokine receptor type 4 (Homo sapiens), P61073 [A175F]; experiment: (§3) Antagonist activity at human CXCR4 A175F mutant expressed in COS7 cells coexpressing G protein Gqi4myr assessed as inhibition of CXCL12-induced phosphatidylinositol turnover; format: functional, cell-based; conditions: COS-7
[6] = target: C-X-C chemokine receptor type 4 (Homo sapiens, UniProt P61073, A175F); experiment: as §3; format: functional, cell-based, COS-7
[7] = target: C-X-C chemokine receptor type 4 (Homo sapiens, UniProt P61073, H113A); experiment: (§4) Antagonist activity at human CXCR4 H113A mutant expressed in COS7 cells coexpressing G protein Gqi4myr assessed as inhibition of CXCL12-induced phosphatidylinositol turnover; format: functional, cell-based, COS-7
[8] = system: C-X-C chemokine receptor type 4 (Homo sapiens), P61073 [H113A]; experiment: as §4; format: functional, cell-based; conditions: COS-7
[9] = target: C-X-C chemokine receptor type 4 (Homo sapiens, UniProt P61073, D262N); experiment: (§5) Antagonist activity at human CXCR4 D262N mutant expressed in COS7 cells coexpressing G protein Gqi4myr assessed as inhibition of CXCL12-induced phosphatidylinositol turnover; format: functional, cell-based, COS-7
[10] = system: C-X-C chemokine receptor type 4 (Homo sapiens), P61073 [D262N]; experiment: as §5; format: functional, cell-based; conditions: COS-7
[11] = target: C-X-C chemokine receptor type 4 (Homo sapiens, UniProt P61073, T287A); experiment: (§6) Antagonist activity at human CXCR4 T287A mutant expressed in COS7 cells coexpressing G protein Gqi4myr assessed as inhibition of CXCL12-induced phosphatidylinositol turnover; format: functional, cell-based, COS-7
[12] = system: C-X-C chemokine receptor type 4 (Homo sapiens), P61073 [T287A]; experiment: as §6; format: functional, cell-based; conditions: COS-7
[13] = target: C-X-C chemokine receptor type 4 (Homo sapiens, UniProt P61073, I284A); experiment: (§7) Antagonist activity at human CXCR4 I284A mutant expressed in COS7 cells coexpressing G protein Gqi4myr assessed as inhibition of CXCL12-induced phosphatidylinositol turnover; format: functional, cell-based, COS-7
[14] = system: C-X-C chemokine receptor type 4 (Homo sapiens), P61073 [I284A]; experiment: as §7; format: functional, cell-based; conditions: COS-7
[15] = target: C-X-C chemokine receptor type 4 (Homo sapiens, UniProt P61073, H203A); experiment: (§8) Antagonist activity at human CXCR4 H203A mutant expressed in COS7 cells coexpressing G protein Gqi4myr assessed as inhibition of CXCL12-induced phosphatidylinositol turnover; format: functional, cell-based, COS-7
[16] = system: C-X-C chemokine receptor type 4 (Homo sapiens), P61073 [H203A]; experiment: as §8; format: functional, cell-based; conditions: COS-7
[17] = system: C-X-C chemokine receptor type 4 (Homo sapiens), P61073 [I259W]; experiment: (§9) Antagonist activity at human CXCR4 I259W mutant expressed in COS7 cells coexpressing G protein Gqi4myr assessed as inhibition of CXCL12-induced phosphatidylinositol turnover; format: functional, cell-based; conditions: COS-7
[18] = target: C-X-C chemokine receptor type 4 (Homo sapiens, UniProt P61073, I259W); experiment: as §9; format: functional, cell-based, COS-7
[19] = target: C-X-C chemokine receptor type 4 (Homo sapiens, UniProt P61073, V196A); experiment: (§10) Antagonist activity at human CXCR4 V196A mutant expressed in COS7 cells coexpressing G protein Gqi4myr assessed as inhibition of CXCL12-induced phosphatidylinositol turnover; format: functional, cell-based, COS-7
[20] = system: C-X-C chemokine receptor type 4 (Homo sapiens), P61073 [V196A]; experiment: as §10; format: functional, cell-based; conditions: COS-7
[21] = target: C-X-C chemokine receptor type 4 (Homo sapiens, UniProt P61073, Q200A); experiment: (§11) Antagonist activity at human CXCR4 Q200A mutant expressed in COS7 cells coexpressing G protein Gqi4myr assessed as inhibition of CXCL12-induced phosphatidylinositol turnover; format: functional, cell-based, COS-7
[22] = system: C-X-C chemokine receptor type 4 (Homo sapiens), P61073 [Q200A]; experiment: as §11; format: functional, cell-based; conditions: COS-7
[23] = system: C-X-C chemokine receptor type 4 (Homo sapiens), P61073 [L120F]; experiment: (§12) Antagonist activity at human CXCR4 L120F mutant expressed in COS7 cells coexpressing G protein Gqi4myr assessed as inhibition of CXCL12-induced phosphatidylinositol turnover; format: functional, cell-based; conditions: COS-7
[24] = target: C-X-C chemokine receptor type 4 (Homo sapiens, UniProt P61073, L120F); experiment: as §12; format: functional, cell-based, COS-7
[25] = target: C-X-C chemokine receptor type 4 (Homo sapiens, UniProt P61073, E288A); experiment: (§13) Antagonist activity at human CXCR4 E288A mutant expressed in COS7 cells coexpressing G protein Gqi4myr assessed as inhibition of CXCL12-induced phosphatidylinositol turnover; format: functional, cell-based, COS-7
[26] = system: C-X-C chemokine receptor type 4 (Homo sapiens), P61073 [E288A]; experiment: as §13; format: functional, cell-based; conditions: COS-7
[27] = target: C-X-C chemokine receptor type 4 (Homo sapiens, UniProt P61073, Y255A); experiment: (§14) Antagonist activity at human CXCR4 Y255A mutant expressed in COS7 cells coexpressing G protein Gqi4myr assessed as inhibition of CXCL12-induced phosphatidylinositol turnover; format: functional, cell-based, COS-7
[28] = system: C-X-C chemokine receptor type 4 (Homo sapiens), P61073 [Y255A]; experiment: as §14; format: functional, cell-based; conditions: COS-7
[29] = system: C-X-C chemokine receptor type 4 (Homo sapiens), P61073 [H281A]; experiment: (§15) Antagonist activity at human CXCR4 H281A mutant expressed in COS7 cells coexpressing G protein Gqi4myr assessed as inhibition of CXCL12-induced phosphatidylinositol turnover; format: functional, cell-based; conditions: COS-7
[30] = target: C-X-C chemokine receptor type 4 (Homo sapiens, UniProt P61073, H281A); experiment: as §15; format: functional, cell-based, COS-7
[31] = system: C-X-C chemokine receptor type 4 (Homo sapiens), P61073 [D171N]; experiment: (§16) Antagonist activity at human CXCR4 D171N mutant expressed in COS7 cells coexpressing G protein Gqi4myr assessed as inhibition of CXCL12-induced phosphatidylinositol turnover; format: functional, cell-based; conditions: COS-7
[32] = target: C-X-C chemokine receptor type 4 (Homo sapiens, UniProt P61073, D171N); experiment: as §16; format: functional, cell-based, COS-7
[33] = target: C-X-C chemokine receptor type 4 (Homo sapiens, UniProt P61073); experiment: Antagonist activity at human wild type CXCR4 expressed in COS7 cells coexpressing G protein Gqi4myr assessed as inhibition of CXCL12-induced phosphatidylinositol turnover; format: functional, cell-based, COS-7
[34] = target: C-X-C chemokine receptor type 4 (Homo sapiens, UniProt P61073, Q200W); experiment: (§17) Antagonist activity at human CXCR4 Q200W mutant expressed in COS7 cells coexpressing G protein Gqi4myr assessed as inhibition of CXCL12-induced phosphatidylinositol turnover; format: functional, cell-based, COS-7
[35] = system: C-X-C chemokine receptor type 4 (Homo sapiens), P61073 [Q200W]; experiment: as §17; format: functional, cell-based; conditions: COS-7

Chain of C-X-C chemokine receptor type 4 (Homo sapiens, UniProt P61073) (P61073 whole entry): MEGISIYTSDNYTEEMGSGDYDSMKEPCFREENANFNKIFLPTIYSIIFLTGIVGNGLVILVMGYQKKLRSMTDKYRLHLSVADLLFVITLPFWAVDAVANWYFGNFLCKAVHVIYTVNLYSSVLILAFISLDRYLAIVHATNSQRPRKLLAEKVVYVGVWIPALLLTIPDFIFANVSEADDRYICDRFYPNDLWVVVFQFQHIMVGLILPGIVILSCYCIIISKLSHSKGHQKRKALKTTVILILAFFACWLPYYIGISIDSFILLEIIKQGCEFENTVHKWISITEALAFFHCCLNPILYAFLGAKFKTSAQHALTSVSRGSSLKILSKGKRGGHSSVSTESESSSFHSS
Chain of C-X-C chemokine receptor type 4 (Homo sapiens, UniProt P61073, Y255A) (P61073 whole entry Y255A): as the sequence (P61073 whole entry) above, with Y255A counted along it
Chain of C-X-C chemokine receptor type 4 (Homo sapiens), P61073 [Y255A] (P61073 whole entry Y255A): as the sequence (P61073 whole entry) above, with Y255A counted along it
Chain of C-X-C chemokine receptor type 4 (Homo sapiens), P61073 [V196A] (P61073 whole entry V196A): as the sequence (P61073 whole entry) above, with V196A counted along it
Chain of C-X-C chemokine receptor type 4 (Homo sapiens, UniProt P61073, V196A) (P61073 whole entry V196A): as the sequence (P61073 whole entry) above, with V196A counted along it
Chain of C-X-C chemokine receptor type 4 (Homo sapiens), P61073 [T287A] (P61073 whole entry T287A): as the sequence (P61073 whole entry) above, with T287A counted along it
Chain of C-X-C chemokine receptor type 4 (Homo sapiens, UniProt P61073, T287A) (P61073 whole entry T287A): as the sequence (P61073 whole entry) above, with T287A counted along it
Chain of C-X-C chemokine receptor type 4 (Homo sapiens, UniProt P61073, Q200A) (P61073 whole entry Q200A): as the sequence (P61073 whole entry) above, with Q200A counted along it
Chain of C-X-C chemokine receptor type 4 (Homo sapiens), P61073 [Q200A] (P61073 whole entry Q200A): as the sequence (P61073 whole entry) above, with Q200A counted along it
Chain of C-X-C chemokine receptor type 4 (Homo sapiens, UniProt P61073, H203A) (P61073 whole entry H203A): as the sequence (P61073 whole entry) above, with H203A counted along it
Chain of C-X-C chemokine receptor type 4 (Homo sapiens), P61073 [H203A] (P61073 whole entry H203A): as the sequence (P61073 whole entry) above, with H203A counted along it
Chain of C-X-C chemokine receptor type 4 (Homo sapiens), P61073 [I284A] (P61073 whole entry I284A): as the sequence (P61073 whole entry) above, with I284A counted along it
Chain of C-X-C chemokine receptor type 4 (Homo sapiens, UniProt P61073, I284A) (P61073 whole entry I284A): as the sequence (P61073 whole entry) above, with I284A counted along it

For c1ccc(CNCc2ccc(CN3CCCNCCNCCCNCC3)cc2)cc1, the Ki [1] was 910 nM, the logIC50 [2] was -6.04 and the Ki [3] was 170 nM. The logIC50 [4] was -5.92, the logIC50 [5] was -3.89 and the Ki [6] was 128000 nM. The Ki [7] was 18000 nM, the logIC50 [8] was -4.74 and the Ki [9] was 2300 nM. For the same compound, the logIC50 [10] was -5.64, the Ki [11] was 340 nM and the logIC50 [12] was -6.46. It also gave a Ki [13] of 420 nM, a logIC50 [14] of -6.38 and a Ki [15] of 7200 nM. For the same compound, the logIC50 [16] was -5.14, the logIC50 [17] was -5.5 and the Ki [18] was 3100 nM. It also gave a Ki [19] of 1300 nM, a logIC50 [20] of -5.88 and a Ki [21] of 12000 nM. For the same compound, the logIC50 [22] was -4.91, the logIC50 [23] was -6.36 and the Ki [24] was 440 nM. For the same compound, the Ki [25] was 11000 nM, the logIC50 [26] was -4.96 and the Ki [27] was 8800 nM. For the same compound, the logIC50 [28] was -5.05, the logIC50 [29] was -5.75 and the Ki [30] was 1800 nM. The logIC50 [31] was -4.85, the Ki [32] was 14000 nM and the Ki [33] was 1700 nM. For the same compound, the logIC50 ([33]; COS-7) was -5.76, the Ki [34] was 7200 nM and the logIC50 [35] was -5.14.
